From patent publication US4800207A, “Hexahydropyrrolizine compounds useful as analgesics” (McNeilab, Inc., priority 1987, dated 1989)

Test system: Mouse Acetylcholine-Bromide-Induced Abdominal Constriction
Experiment: Mouse Acetylcholine-Bromide-Induced Abdominal Constriction Assay
Format: in vivo
Settings: p.o. 30 minutes before 5.5 mg/kg i.p. acetylcholine bromide, ten minute observation; for % Inhibition 30 mg Kg (percent inhibition of writhing, % analgesia): at least 20 animals per group; for ED50: Mus musculus, po, four doses, probit analysis, read-out: ED50 (that dose which inhibits writhing by 50%)
Protocol: Mouse Acetylcholine-Bromide-Induced Abdominal Constriction Assay
The mouse acetylcholine-induced abdominal constriction assay, as described by Collier et al. in Brit. J. Pharmacol. Chemother, 32: 295-310, 1968, with minor modifications was one test used to assess analgesic potency. The test drugs or appropriate vehicle were administered p.o. and 30 minutes later the animals received an i.p. injection of 5.5 mg/kg acetylcholine bromide (Matheson, Coleman and Bell, East Rutherford, N.J.). The mice where then placed in groups of four into glass bell jars and observed for a ten minute observation period for the occurrence of a writhe which is defined as a wave of constriction and elongation passing caudally along the abdominal wall, accompanied by a twisting of the trunk and followed by extension of the hind limbs. The percent inhibition of writhing (equated to % analgesia) was calculated as follows: The % inhibition of writhing, i.e., % analgesia is equal to the difference between the number of control animals writhing and the number of drug-treated animals writhing times 100 divided by the number of control animals writhing.
At least 20 animals were used for control and in each of the drug treated groups. Four doses were used to determine each dose response curve and ED50 (that dose which inhibits writhing by 50%). The ED50 values and their 95% fiducial limits were determined by a computer assisted probit analysis.

Structure (SMILES): c1ccc(C2CCC3CCCN32)cc1 (stereo not drawn) [Example 1, Hexahydro-3-phenyl-1H-pyrrolizine]
- % Inhibition 30 mg Kg (percent inhibition of writhing, % analgesia): 100%
- ED50: 5.7 mg/kg

Structure (SMILES): Brc1ccccc1C1CCC2CCCN21 (single isomer, unassigned) [2f (diasteriomer A), 3-(2-bromophenyl)hexahydro-1H-pyrrolizine]
- % Inhibition 30 mg Kg (percent inhibition of writhing, % analgesia): 60%

Structure (SMILES): Cc1ccc(C2CCC3CCCN32)cc1 (stereo not drawn) [Example 3d, Hexahydro-3-(4-methylphenyl)-1H-pyrrolizine]
- % Inhibition 30 mg Kg (percent inhibition of writhing, % analgesia): 100%

Structure (SMILES): Brc1ccccc1C1CCC2CCCN21 (single isomer, unassigned) [2f (diasteriomer B), 3-(2-bromophenyl)hexahydro-1H-pyrrolizine]
- % Inhibition 30 mg Kg (percent inhibition of writhing, % analgesia): 100%
- ED50: 8.7 mg/kg
